Measured values taken from patent US9114163B2, “Medication against breast cancer and related diseases” (MaBel GmbH, priority 2006, dated 2015).

Columns and labels:
MCF-7 cells = test: Inhibition of MCF-7 cell proliferation (counting of vital cells); assay type: cell-based, human; details: 10^-7 M, 10^-8 M, 10^-9 M; cell counts after 3, 6 and 9 days; compared with DHT and control
Method: MCF-7 cells were grown in RPMI 1640 medium at 37° C. to a cell number of about 1*10^5 cells/ml. Then, in quadruple identical MCF-7 cell samples, there were added either dihydrotestosterone (DHT) or 4-hydroxytestosterone (4-OHT), to obtain different concentrations thereof, namely 10^−7 M, 10^−8 M or 10^−9 M, and further growth of cells were determined by counting of vital cells. During the course of incubation at 37° C., cell counting were performed after 3, 6 and 9 days. For control, growth of MCF-7 cells were determined without addition of an active agent.
The results on an inhibition of MCF-7 cell proliferation are shown in FIGS. 1A, 1B and 1C for the compound concentrations of 10^−7 M, 10^−8 M and 10^−9 M of either DHT or 4-OHT, respectively, and compared with the control.

[1] = tested on: malign breast carcinoma (C. mammae); test: Double blind clinical test, topical cream, patients with malign breast carcinoma; assay type: in vivo, human; details: for Clinical Remission: topical cream once a day
Method: (§1) Double blind clinical tests were conducted with a group of 10 female patients. In this clinical testing, particular attention was paid to hormone receptor statuses of patients' target breast cancer tissue regarding progesterone receptor (PR) and in particular regarding estrogen receptor (ER); The cancers of the patients were assumed to be predominantly androgen receptor (AR) positive. Among this group, six patients had histologically ascertained malign breast carcinoma (C. mammae). […] In a sixth patient, the presence of a malign breast carcinoma was ascertained, but the amount of cancer tissue was too low to determine receptor status.
(§2) All 10 female patients were topically and locally treated using 4-hydroxytestosterone as active agent, by administering of a cream as described in Example 2 locally to target skin portions of the breasts. After continuing daily topical administration once a day during an administration period of 3 months, clinical investigations on therapeutic effects were performed.
The results of the 6 patients having malign breast carcinoma are shown in the following Table 1, together with the receptor status determined for patient nos. 1 to 5.

[2] = tested on: normal or mastopathic breast tissue; test: Double blind clinical test, topical cream, patients with non-malign breast tissue; assay type: in vivo, human; details: 4 patients with non-malign disease states, topical administration
Method: as §1, §2

## C[C@]12CC[C@H]3[C@@H](CCC4=C(O)C(=O)CC[C@@]43C)[C@@H]1CC[C@@H]2O [4-hydroxytestosterone, 4,17β-dihydroxyandrost-4-ene-3-one]
MCF-7 cells
  inhibitory effect on MCF-7 cell proliferation: significantly enhanced inhibitory effect
[1]; Patient # 1, ER 0, PR 0, Her2neu 0, 3 months
  Clinical Remission: yes
[1]; Patient # 3, ER 0, PR 0, Her2neu 0, 3 months
  Clinical Remission: yes
[1]; Patient # 6, receptor status not determined, 3 months
  Clinical Remission: yes
[1]; clinical study, ER negative tumours, topical cream, 3 months
  treatment of ER negative cancer cells: effectively treated
[1]; clinical study, topical cream, 3 months
  efficacy in shrinking cancerous tissues: excellent efficacy in shrinking cancerous tissues
[1]; of 6 patients with malign breast carcinoma, those so far subjected to post-treatment investigation, 3 months topical
  patients with noticeable remission of breast cancer tissues as determined by mammography: three
[2]
  tissue reduction of normal or mastopathic appearing tissues: clear tendency for tissue reduction
